Earlier results on one compound are cited in patent US6682761B2, “Water-insoluble drug particle process” (RTP Pharma, Inc., priority 2000, dated 2004).

For this data set the following is noted: in vivo.

As to `CC(C)(Oc1ccc(C(=O)c2ccc(Cl)cc2)cc1)C(=O)O` [Fenofibric acid], the plasma half-life entry is “about 20 hours”.
